In patent US10336792B2, “Antimicrobial peptide dendrimers” (priority 2014, dated 2019):

Experiments:
[1] = tested on: Pseudomonas aeruginosa (strain PA01); format: cell-based; conditions: 25 μg/mL; 0, 1, 3, 6, 8, 24 h
Experimental: Cell viability was assayed against Pseudomonas aeruginosa (strain PA01). A colony of bacteria was grown in LB-medium overnight at 37° C. The concentration was quantified by measuring absorbance at 600 nm and diluted to OD600=0.1 (1×10^8 CFU/mL). The samples were prepared as stock solutions of 1 mg mL^−1 in H2O and diluted in LB to a concentration of 50 μg/mL in a 96-well microtiterplate (TPP, untreated). The sample solutions (50 μL) were mixed with the diluted bacterial suspension with an OD600 nm of 0.001 (50 μL). […] The plates were incubated at 37° C. for 1, 3, 6, 8 and 24 h. Each time point was assayed on a separate plate. For each test, two columns of the plate were kept for sterility control (SC, broth only) and growth control (GC, broth with bacterial inoculums, no antibiotics). After incubation 15 μL of WST-8 working solution (3.31 mg/mL WST-8 (Ochem Incorporation), 0.074 mg/mL PES (phenazine ethosulfate)) was added to each well and cells were incubated at 37° C. until GC had desired value. After the reaction took place, the final absorbance was read at 450 nm. For calculations, the value of the GC was set to 100% cell viability and the value of the negative control (no bacteria, SC) was set to 0% cell viability. […]
In order to determine the killing kinetics of AMPDs the amount of living bacteria was measured as a function of time after incubation with the AMPDs. […]

[2] = 5(6)-Carboxyfluorescein leakage from lipid vesicles; conditions: 10 mM TRIS, 107 mM NaCl, pH 7.4; peptide added at 50 s
Experimental: Preparation A thin lipid film was prepared by evaporating a solution of 25 mg Egg PC or Egg PG in 1 mL MeOH/CHCl3 1/1 on a rotary evaporator (rt) and then in vacuo overnight. The resulting film was hydrated with 1 mL buffer (50 mM CF, 10 mM TIRS, 10 mM NaCl, pH 7.4) for 30 min, subjected to freeze-thaw cycles (7×) and extrusion (15×) through a polycarbonate membrane (pore size 100 nm). Extravesicular components were removed by gel filtration (Sephadex G-50) with 10 mM TRIS, 107 mM NaCl, pH 7.4. Final conditions: ˜2.5 mM Egg PC or Egg PG; inside: 50 mM CF, 10 mM TIRS, 10 mM NaCl, pH 7.4; outside: 10 mM TRIS, 107 mM NaCl, pH 7.4.
Experiment Egg PC or Egg PG stock solutions (37.5 μL) were diluted with a buffer (10 mM TRIS, 107 mM NaCl, pH 7.4) and placed in a thermostated fluorescence cuvette (25° C.) and gently stirred (total volume in the cuvette ˜3000 μL; final lipid concentration ˜31.25 μM). CF efflux was monitored at λem 517 nm (λex 492 nm) as a function of time after addition of 20 μL of peptide dendrimer in buffer (10 mM TRIS, 107 mM NaCl, pH 7.4) with final concentrations of 1, 5, 7.5, 10, 15, 20, 25, 30 μg/mL at t=50 s and 1.2% trition X-100 (30 μL, 0.012% final concentration) at t=300 s. Fluorescence intensities were normalized to fractional emission intensity I(t) using I(t)=(It−I0)/(I∞−I0) where I0 It at peptide dendrimer addition, I∞=It at saturation of lysis.

[3] = tested on: Staphylococcus aureus (COL, MRSA reference strain); format: cell-based; conditions: MH medium, 12-18 h
Outline: (§1)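 Broth microdilution in Müller-Hinton medium, two-fold serial dilutions from a starting 32–256 μg/mL, compounds dissolved in PBS; inoculum about 5×10^5 CFU, incubated 37° C ~18 h. MIC taken as lowest concentration with no visible growth by eye; polymyxin as reference.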

Acinetobacter baumannii = format: cell-based; conditions: MH medium, 12-18 h
Outline: as §1

PAO1 = format: cell-based, Pseudomonas aeruginosa; conditions: PAO1, MH medium + 30% human serum
Experimental: (§2) Antimicrobial activity was assayed against P. aeruginosa PA01 (WT), P. aeruginosa PT1482 (A-), PT1485 (A-B-), PT1149 (A-B-C-algC), PT331 (Z61) (LPS mutants), P. aeruginosa PEJ2.6, PEJ9.1, ZEM1.A, ZEM9.A (clinical isolates from Université de Genève/Centre Médical Universitaire), Burkholderia cenocepacia (B. ceno), Staphylococcus aureus (S. aureus, MRSA strain) and Acinetobacter baumannii (A. baum) (clinical isolates from Université de Genève/Centre Médical Universitaire). To determine the minimal inhibitory concentration (MIC), microdilution broth method was used. A colony of bacteria was grown in MH-medium overnight at 37° C. The samples were prepared as stock solutions of 8 mg mL^−1 in H2O, diluted to the beginning concentration of 32, 64, 128 or 256 μg/mL in 300 μL MH-medium, added to the first well of 96-well microtiterplate (TPP, untreated) and diluted serially by ½. The concentration of the bacteria was quantified by measuring absorbance at 600 nm and diluted to OD600=0.022 in MH-medium. The sample solutions (150 μL) were mixed with 4 μL diluted bacterial suspension with a final inoculation of about of 5×10^5 CFU. The plates were incubated at 37° C. until satisfactory growth (˜18 h). For each test, two columns of the plate were kept for sterility control (SC, broth only) and growth control (GC, broth with bacterial inoculums, no antibiotics). The minimal inhibitory concentration (MIC) was defined as the lowest concentration of the antimicrobial substance (peptide dendrimer) that inhibited visible growth of the tested bacteria with the unaided eye. For microbiological study Polymyxin was used as references.

P. aeruginosa PA01 (WT) = format: cell-based, Pseudomonas aeruginosa
Experimental: as §2

[4] = tested on: P. aeruginosa PT1482 (A-), PT1485 (A-B-), PT1149 (A-B-C-algC), PT331 (Z61) (LPS mutants); format: cell-based, Pseudomonas aeruginosa; conditions: MH medium, 12-18 h
Experimental: as §2

Polymyxin B [reference compound]
killing kinetics (bacterial survival over 24 hours) [1]: kill P. aeruginosa immediately | CF leakage from phosphatidylcholine LUVs [2]: behave in the same way | MIC S. aureus COL [3]: 64 µg/mL | MIC A. baumannii ATCC19606 (Acinetobacter baumannii): <1 µg/mL | MIC (MH + 30% human serum) (PAO1): 4 µg/mL | MIC PAO1 (P. aeruginosa PA01 (WT); MH medium, 12-18 h, two independent experiments in triplicate (Table 25)): 1 µg/mL | MIC (MH) (P. aeruginosa PA01 (WT); PAO1, MH medium (Table 24)): 2 µg/mL | MIC PT1482 (A-) [4]: 1 µg/mL | MIC PT1485 (AB-) [4]: <1 µg/mL
